Assay [1] addresses T1, BRD4 Bromodomain 2 (BRD4 BD2) (Homo sapiens, UniProt O60885).
T1 construct: 333-460 were cloned, expressed, and purified to homogeneity
Put plainly: AlphaScreen binding assay, BRD4 BD2. Conditions: His-tagged BRD4 BD2 100 nM, biotinylated H4 (1-21) K5/8/12/16 tetra-acetylated peptide 100 nM, compounds listed under IC50 range headings. The method in brief: (§1)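 Compound dilution series were mixed with His-tagged BRD4 bromodomain and biotinylated tetra-acetylated H4 (1-21) peptide at pH 7.3 (BD1 and peptide at 50 nM, BD2 and peptide at 100 nM). Donor and acceptor beads were then added, and plates were equilibrated at least 1 h before reading. IC50 values were fitted with a four-parameter logistic model.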
For orientation: In Alpha technology, singlet oxygen from a donor bead excites a nearby acceptor bead.

For assay [2], the target named is T2, BRD4 Bromodomain 1 (BRD4 BD1) (Homo sapiens, UniProt O60885).
T2 construct: 44-168 and BRD4 BD2
Put plainly: AlphaScreen binding assay, BRD4 BD1. The conditions noted are these: His-tagged BRD4 BD1 50 nM, biotinylated H4 (1-21) K5/8/12/16 tetra-acetylated peptide 50 nM, compounds listed under IC50 range headings. The method in brief: as §1

For assay [3], the system named is acute myelocytic leukemia (AML) cell line MV4-11. Put plainly: Oncology cell growth assay (3-day proliferation, CellTiter-Glo). In kind it is cell-based. The conditions noted are these: Homo sapiens, MV4-11, 72 h, MV4-11 cells, 3000 cells/well, compounds listed under IC50 range headings, read-out: MV411 IC50 (gIC50, inhibition of proliferation). The method in brief: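 72 h, 37° C, 5% CO2; MV4-11, 3000 cells/well, RPMI 1640 + 10% FBS. Compound final 10, 3.3, 1.1, 0.37, 0.12, 0.041, 0.013, 0.0045 μM. Readout CellTiter-Glo luminescence; gIC50 by 4-parameter logistic fit, normalised to DMSO and no-cell background.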

Where only a bound is given, the exact number is not on record here.

In the case of `CC(=O)N1c2ccc(-c3cnn(C4CCNCC4)c3)c(Oc3ncc(C4CC4)cn3)c2CC[C@@H]1C` [I-518], the IC50 was 50 to 500 nM in assay [1], 100 to 1000 nM in assay [2] and less than 500 nM in assay [3].
On to `CC(=O)N1c2ccc(-c3cnn(C4CCNCC4)c3)c(Oc3ncc(C(F)(F)F)cn3)c2CC[C@@H]1C` [I-519], for which the IC50 in assay [1] was 50 to 500 nM; in assay [2] it was 100 to 1000 nM; in assay [3], less than 500 nM.
`CC(=O)N1c2ccc(-c3cnn(C4CCNCC4)c3)c(Oc3ncccc3C(N)=O)c2CC[C@@H]1C` [I-520]: the IC50 in assay [1] is 50 to 500 nM; in assay [2], 1000 to 10000 nM; in assay [3] it was more than 1000 nM.
For `CC(=O)N1c2ccc(-c3cnn(C4CCNCC4)c3)c(Oc3ncc(C(F)(F)F)cc3F)c2CC[C@@H]1C` [I-521], in that order: less than 50 nM, 100 to 1000 nM and less than 500 nM.
For `COC(=O)c1ccc(Oc2c(-c3cnn(C4CCNCC4)c3)ccc3c2CC[C@H](C)N3C(C)=O)nc1` [I-522], in that order: 50 to 500 nM, 1000 to 10000 nM and 500 to 1000 nM.
In the case of `CC(=O)N1c2ccc(-c3cnn(C4CCNCC4)c3)c(Oc3ccc(C(N)=O)cn3)c2CC[C@@H]1C` [I-523], the IC50 in assay [1] was 50 to 500 nM; in assay [2], 1000 to 10000 nM; in assay [3] it was more than 1000 nM.
As for `COC(=O)N1c2ccc(-c3cnn(C4CCNCC4)c3)c(Oc3ccc(C(F)(F)F)cn3)c2CC[C@@H]1C` [I-524], the IC50 is 50 to 500 nM in assay [1], 1000 to 10000 nM in assay [2] and less than 500 nM in assay [3].
For `COC(=O)N1c2ccc(-c3cnn(C4CCNCC4)c3)c(Oc3ncccn3)c2CC[C@@H]1C` [I-525], in that order: 50 to 500 nM, 1000 to 10000 nM and less than 500 nM.
For `COC(=O)N1c2ccc(-c3cnn(C4CCNCC4)c3)c(Oc3cnccn3)c2CC[C@@H]1C` [I-526], in that order: 50 to 500 nM, 1000 to 10000 nM and less than 500 nM.
In the case of `COC(=O)N1c2ccc(-c3cnn(C4CCNCC4)c3)c(Oc3ncccc3C(F)(F)F)c2CC[C@@H]1C` [I-527], the figures for the IC50 in assay [1], in assay [2] and in assay [3] were 50 to 500 nM, 1000 to 10000 nM and less than 500 nM, respectively.
In the case of `COC(=O)N1c2ccc(-c3cnn(C4CCNCC4)c3)c(Oc3nccc(C(F)(F)F)n3)c2CC[C@@H]1C` [I-528], the IC50 in assay [1] was 50 to 500 nM; in assay [2], 1000 to 10000 nM; in assay [3], less than 500 nM.
Regarding `COC(=O)N1c2ccc(-c3cnn(C4CCNCC4)c3)c(Oc3ccnc(C(F)(F)F)n3)c2CC[C@@H]1C` [I-529], the IC50 was 50 to 500 nM in assay [1], 1000 to 10000 nM in assay [2] and less than 500 nM in assay [3].
As to `COC(=O)N1c2ccc(-c3cnn(C4CCNCC4)c3)c(Oc3cc(N4CCOCC4)ncn3)c2CC[C@@H]1C` [I-530], the IC50 in assay [1] is not below 500 nM; in assay [2], not below 10000 nM; in assay [3], more than 1000 nM.
For `COC(=O)N1c2ccc(-c3cnn(C4CCNCC4)c3)c(Oc3cc(C4CC4)ncn3)c2CC[C@@H]1C` [I-531], in that order: 50 to 500 nM, 1000 to 10000 nM and less than 500 nM.
Turning to `COC(=O)N1c2ccc(-c3cnn(C4CCNCC4)c3)c(Oc3ncc(C4CC4)cn3)c2CC[C@@H]1C` [I-532], the IC50 was in the range of 50 to 500 nM in assay [1], 1000 to 10000 nM in assay [2] and 500 to 1000 nM in assay [3].
For `COC(=O)N1c2ccc(-c3cnn(C4CCNCC4)c3)c(Oc3ncc(F)cn3)c2CC[C@@H]1C` [I-533], in that order: 50 to 500 nM, 1000 to 10000 nM and less than 500 nM.
For `COC(=O)N1c2ccc(-c3cnn(C4CCNCC4)c3)c(Oc3ncc(C(F)(F)F)cn3)c2CC[C@@H]1C` [I-534], in that order: 50 to 500 nM, 1000 to 10000 nM and 500 to 1000 nM.
Regarding `COC(=O)N1c2ccc(-c3cnn(C4CCNCC4)c3)c(Oc3ncc(C)cn3)c2CC[C@@H]1C` [I-535], the results for the IC50 in assay [1], in assay [2] and in assay [3] were 50 to 500 nM, 1000 to 10000 nM and less than 500 nM, respectively.
For the compound `COC(=O)N1c2ccc(-c3cnn(C4CCNCC4)c3)c(Oc3ncc(C(F)(F)F)cc3F)c2CC[C@@H]1C` [I-536], the IC50 in assay [1] fell in the range of 50 to 500 nM; in assay [2] it was 1000 to 10000 nM; in assay [3], 500 to 1000 nM.
With `COC(=O)c1ccc(Oc2c(-c3cnn(C4CCNCC4)c3)ccc3c2CC[C@H](C)N3C(=O)OC)nc1` [I-537], the IC50 in assay [1] was in the range of 50 to 500 nM; in assay [2], 1000 to 10000 nM; in assay [3], 500 to 1000 nM.
Regarding `COC(=O)N1c2ccc(-c3cnn(C4CCNCC4)c3)c(Oc3ccc(C(N)=O)cn3)c2CC[C@@H]1C` [I-538], the IC50 was 50 to 500 nM in assay [1], 1000 to 10000 nM in assay [2] and more than 1000 nM in assay [3].
Consider `C[C@H]1CCc2c(ccc(-c3cnn(C4CCNCC4)c3)c2Oc2ncccc2C(F)(F)F)N1C(=O)C1CC1` [I-539], for which the IC50 in assay [1] was 50 to 500 nM; in assay [2], 1000 to 10000 nM; in assay [3], less than 500 nM.
Take `C[C@H]1CCc2c(ccc(-c3cnn(C4CCNCC4)c3)c2Oc2ncccc2C#N)N1C(=O)C1CC1` [I-540]: the IC50 in assay [1] was 50 to 500 nM; in assay [2], 100 to 1000 nM; in assay [3] it was less than 500 nM.
`C[C@H]1CCc2c(ccc(-c3cnn(C4CCNCC4)c3)c2Oc2ccc(C(F)(F)F)cn2)N1C(=O)C1CC1` [I-541]: the IC50 in assay [1] is 50 to 500 nM; in assay [2], 1000 to 10000 nM; in assay [3], less than 500 nM.
In the case of `CC(=O)N1c2ccc(-c3cnn(CCO)c3)c(Oc3ncc(C(F)(F)F)cn3)c2CC[C@@H]1C` [I-542], the IC50 in assay [1] was 50 to 500 nM; in assay [2], 100 to 1000 nM; in assay [3], less than 500 nM.
For `CC(=O)N1c2ccc(-c3cnn(CCO)c3)c(Oc3ncc(F)cn3)c2CC[C@@H]1C` [I-543], in that order: 50 to 500 nM, 100 to 1000 nM and less than 500 nM.
For `CC(=O)N1c2ccc(-c3cnn(CCO)c3)c(Oc3ncc(C(C)C)cn3)c2CC[C@@H]1C` [I-545], in that order: less than 50 nM, 100 to 1000 nM and less than 500 nM.
Take `COc1cnc(Oc2c(-c3cnn(CCO)c3)ccc3c2CC[C@H](C)N3C(C)=O)nc1` [I-546]: the IC50 in assay [1] was less than 50 nM; in assay [2], 100 to 1000 nM; in assay [3], 500 to 1000 nM.
Consider `CC(=O)N1c2ccc(-c3cnn(CCO)c3)c(Oc3ncc(C4CC4)cn3)c2CC[C@@H]1C` [I-547], for which the values for the IC50 in assay [1], in assay [2] and in assay [3] were less than 50 nM, 100 to 1000 nM and less than 500 nM, respectively.
For `CC(=O)N1c2ccc(-c3ccc4c(c3)CCN4S(C)(=O)=O)c(Oc3ncc(F)cn3)c2CC[C@@H]1C` [I-548], in that order: 50 to 500 nM, 1000 to 10000 nM and less than 500 nM.
For the compound `CC(=O)N1c2ccc(-c3ccc(S(C)(=O)=O)cc3)c(Oc3ncc(F)cn3)c2CC[C@@H]1C` [I-549], the IC50 in assay [1] fell in the range of 50 to 500 nM; in assay [2], 1000 to 10000 nM; in assay [3], 500 to 1000 nM.
On to `CC(=O)N1c2ccc(-c3cnn(CCS(C)(=O)=O)c3)c(Oc3ncc(F)cn3)c2CC[C@@H]1C` [I-550], for which the IC50 in assay [1] was less than 50 nM; in assay [2], 100 to 1000 nM; in assay [3], less than 500 nM.
For `CC(=O)N1c2ccc(-c3cnn(CC(C)(C)O)c3)c(Oc3ncc(F)cn3)c2CC[C@@H]1C` [I-551], in that order: less than 50 nM, 100 to 1000 nM and less than 500 nM.
For `CC(=O)N1c2ccc(-c3cnn(C(C)(C)CO)c3)c(Oc3ncc(F)cn3)c2CC[C@@H]1C` [I-552], in that order: less than 50 nM, 100 to 1000 nM and less than 500 nM.
For `CC(=O)N1c2ccc(-c3ccc(N4CCCS4(=O)=O)cc3)c(Oc3ncc(F)cn3)c2CC[C@@H]1C` [I-553], in that order: less than 50 nM, 100 to 1000 nM and less than 500 nM.
On to `COC(=O)N1c2ccc(-c3cnn(CCS(C)(=O)=O)c3)c(Oc3ccc(C(F)(F)F)cn3)c2CC[C@@H]1C` [I-554], for which the IC50 was 50 to 500 nM in assay [1], 1000 to 10000 nM in assay [2] and more than 1000 nM in assay [3].
For `COC(=O)N1c2ccc(-c3cnn(CC(C)(C)O)c3)c(Oc3ccc(C(F)(F)F)cn3)c2CC[C@@H]1C` [I-555], in that order: 50 to 500 nM, 1000 to 10000 nM and more than 1000 nM.
For `COC(=O)N1c2ccc(-c3cnn(CCO)c3)c(Oc3ccc(C(F)(F)F)cn3)c2CC[C@@H]1C` [I-556], in that order: 50 to 500 nM, 1000 to 10000 nM and 500 to 1000 nM.
For `COC(=O)N1c2ccc(-c3cnn(C4CC4)c3)c(Oc3ccc(C(F)(F)F)cn3)c2CC[C@@H]1C` [I-557], in that order: 50 to 500 nM, 1000 to 10000 nM and more than 1000 nM.
In the case of `COC(=O)N1c2ccc(-c3cnn(CCS(C)(=O)=O)c3)c(Oc3cnccn3)c2CC[C@@H]1C` [I-558], the IC50 in assay [1] was 50 to 500 nM; in assay [2] it was 1000 to 10000 nM; in assay [3], more than 1000 nM.
For `COC(=O)N1c2ccc(-c3cnn(CC(C)(C)O)c3)c(Oc3cnccn3)c2CC[C@@H]1C` [I-559], in that order: 50 to 500 nM, 1000 to 10000 nM and 500 to 1000 nM.

For the origin of these results see patent US10611750B2, “Tetrahydroquinoline compositions as bet bromodomain inhibitors” (FORMA Therapeutics, Inc., priority 2013, dated 2020).
